Measurements from patent JP2016199536A, “筋肉増強およびメタボリックシンドローム改善ならびにqol改善のための組成物” (NUTRITION ACT CO Ltd, priority 2015, dated 2016).

What was measured:
myoblasts (筋芽細胞) = experiment: Myoblast differentiation promotion test, count of beating myotubes (Example 3); assay type: cell-based; settings: 1 μM, 10 days after cell seeding, cells from ICR mouse fetal thigh muscle
[1] = Body fat reduction in high-fat-diet mice, epididymal fat weight (Example 4); assay type: in vivo, mouse; settings: 10 weeks, C57BL/6J male mice, 6-compartment cage, high-fat diet with oleanolic acid or oleuropein 50 mg/kg diet, or Oleavita 1000 mg/kg diet
[2] = Plasma insulin concentration in high-fat-diet mice (Example 5); assay type: in vivo, mouse; settings: 10 weeks, C57BL/6J male mice, 6-compartment cage, high-fat diet with oleanolic acid or oleuropein 50 mg/kg diet, or Oleavita 1000 mg/kg diet
[3] = Plasma leptin concentration in high-fat-diet mice (Example 5); assay type: in vivo, mouse; settings: 10 weeks, C57BL/6J male mice, 6-compartment cage, high-fat diet with oleanolic acid or oleuropein 50 mg/kg diet, or Oleavita 1000 mg/kg diet

SMILES | beating myotube cells compared with control (myoblasts (筋芽細胞)) | fat-reducing effect compared with high-fat diet group (HF) [1] | suppression of plasma insulin concentration [2] | plasma leptin concentration [3]
C/C=C1/[C@H](O[C@@H]2O[C@H](CO)[C@@H](O)[C@H](O)[C@H]2O)OC=C(C(=O)OC)[C@H]1CC(=O)OCCc1ccc(O)c(O)c1 [オレウロペイン] | わずかに増加 | 脂肪減少効果が見られなかった | 抑制効果がなかった | 高値
CC1(C)CC[C@]2(C(=O)O)CC[C@]3(C)C(=CC[C@@H]4[C@@]5(C)CC[C@H](O)C(C)(C)[C@@H]5CC[C@]43C)[C@@H]2C1 [オレアノール酸] | わずかに増加 | 脂肪減少効果が見られなかった | 抑制効果がなかった | 高値
